Measured values reported in patent publication US10222381B2, “Water-soluble peptide fluorescence material” (NATIONAL CHIAO TUNG UNIVERSITY, priority 2015, dated 2019).
Non-standard residues stand in square brackets, D forms with d. Residues, ends and D or L forms follow the SMILES beside them. ξ: configuration not given here. *: point of attachment. Acetyl(1,8-naphthalimido) = O=C1c2cccc3cccc(c23)C(=O)N1CC(=O)*; X2 = O=C1c2cccc3c(N4CCCCC4)ccc(c23)C(=O)N1CC(=O)*; ξY = NC(Cc1ccc(O)cc1)C(=O)O; ξE = NC(CCC(=O)O)C(=O)O

Key:
[1] = Fluorescence intensity and emission wavelength at different pH values; type: physicochemical; settings: for color of fluorescence / emission peak: pH 5; for fluorescence intensity: pH 10 to 6; for pH value of the highest fluorescence intensity: pH 10 to 3 tested
Excerpt: In Experimental Examples 210, 220, 230, 240, 250, 260, 270 and 280, the above water-soluble peptide fluorescence material is respectively placed in environments having a pH value of 10, 9, 8, 7, 6, 5, 4 and 3 for testing. In Experimental Examples 210 to 230, the water-soluble peptide fluorescence material is respectively placed in environments having the pH value of 10, 9 and 8.
Continuing in FIG. 5, which illustrates a fluorescence intensity and an emission wavelength of the water-soluble peptide fluorescence material of formula (III-10) at different pH values. In Experimental Examples 510, 520, 530, 540, 550, 560, 570 and 580, the water-soluble peptide fluorescence material of formula (III-10) is respectively placed in environments having a pH value of 10, 9, 8, 7, 6, 5, 4 and 3 for testing. In Experimental Examples 510 to 560, the water-soluble peptide fluorescence material is placed in environments having the pH value of 10 to 5, and two emission peaks are shown in FIG. 5. […] Then, the pH value is further decrease to 4 (Experimental Example 570) and 3 (Experimental Example 580), and only the emission peak at about 400 nm is remained, so the observed fluorescence has a color of purple in Experimental Examples 570 and 580. Therefore, the water-soluble peptide fluorescence material of formula (III-10) is able to detect and mark locations of acidic cells by change of the color.
Continuing in FIG. 7, which illustrates a fluorescence intensity and an emission wavelength of the water-soluble peptide fluorescence material of formula (III-21) at different pH values. In Experimental Examples 710, 720, 730, 740, 750, 760, 770 and 780, the water-soluble peptide fluorescence material of formula (III-21) is respectively placed in environments having a pH value of 10, 9, 8, 7, 6, 5, 4 and 3 for testing. In Experimental Examples 710 to 750, the water-soluble peptide fluorescence material is placed in environments having the pH value of 10 to 6. […] However, the fluorescence intensity of Experimental Examples 780 is decreased when the pH value is decreased from 4 to 3.
Continuing in FIG. 8, which illustrates a fluorescence intensity and an emission wavelength of the water-soluble peptide fluorescence material of formula (III-22) at different pH values. In Experimental Examples 810, 820, 830, 840, 850, 860, 870 and 880, the water-soluble peptide fluorescence material of formula (III-22) is respectively placed in environments having a pH value of 10, 9, 8, 7, 6, 5, 4 and 3 for testing. In Experimental Examples 810 to 850, the water-soluble peptide fluorescence material is respectively placed in environments having the pH value of 10 to 6. […] In addition, the fluorescence intensity of Experimental Example 860 (pH=5) is 90 times of the fluorescence intensity of Experimental Example 810 […], which represents that the water-soluble peptide fluorescence material has obvious light-emitting interval and easily to identify and detect positions of the acidic cells.
FIG. 10 illustrates a fluorescence intensity and an emission wavelength of the water-soluble peptide fluorescence material of formula (III-23) at different pH values. In Experimental Examples 1010, 1020, 1030, 1040, 1050, 1060, 1070 and 1080, the water-soluble peptide fluorescence material of formula (III-23) is respectively placed in environments having a pH value of 10, 9, 8, 7, 6, 5, 4 and 3 for testing. In Experimental Examples 1010 to 1050, the water-soluble peptide fluorescence material is respectively placed in environments having the pH value of 10 to 6. […] The water-soluble peptide fluorescence material not only provides obvious marker, but also achieves the same effect of the fluorescence at a low concentration, and thereby reduces the costs.
FIG. 11 illustrates a fluorescence intensity and an emission wavelength of the water-soluble peptide fluorescence material of formula (III-27) at different pH values. […]

[2] = Fluorescence in co-solvents of water and dimethyl sulfoxide (aggregation-induced emission); type: physicochemical; settings: for fluorescence intensity with increase of the volume ratio of water: aggregation-induced emission; for color of observed fluorescence / emission wavelength: water/dimethyl sulfoxide co-solvent
Excerpt: Continuing in FIG. 4, which illustrates a fluorescence intensity and an emission wavelength of the water-soluble peptide fluorescence material of formula (III-1) in co-solvents having different proportions of water and dimethyl sulfoxide. In Experimental Example 401, 402, 403, 404, 405, 406, 407, 408, 409, 410 and 411, water respectively has 0, 10, 20, 30, 40, 50, 60, 70, 80, 90 and 100% of a total volume of the co-solvent. […] As such, no significant fluorescence marker is shown, so it is difficult to observe apparent fluorescence visually. […] Given the above, the fluorescence intensity of the water-soluble peptide fluorescence material of formula (III-1) is increased corresponding to the increase of the volume ratio of water, which is also referred as aggregation-induced emission (AIE). In addition, the water-soluble peptide fluorescence material of formula (III-1) has the emission wavelength of about 400 nm, so the observed fluorescence has a color of blue violet.
Continuing in FIG. 9, which illustrates a fluorescence intensity and an emission wavelength of the water-soluble peptide fluorescence material of formula (III-23) in co-solvents having different proportions of water and dimethyl sulfoxide. In Experimental Examples 901, 902, 903, 904, 905, 906, 907, 908, 909 and 910, water respectively has 0, 10, 20, 30, 40, 50, 60, 70, 80 and 90% of a total volume of the co-solvent. […] Given the above, the fluorescence intensity of the water-soluble peptide fluorescence material of formula (III-23) is increased corresponding to the increase of the volume ratio of water and has a phenomenon of aggregation-induced emission in water. In addition, the water-soluble peptide fluorescence material of formula (III-23) has the emission wavelength of about 550 nm, so the observed fluorescence has a color of green.
FIG. 12 illustrates a fluorescence intensity and an emission wavelength of the water-soluble peptide fluorescence material of formula (III-28) in co-solvents having different proportions of water and dimethyl sulfoxide. In Experimental Example 1201, 1202, 1203, 1204, 1205, 1206, 1207, 1208, 1209, 1210 and 1211, water respectively has 0, 10, 20, 30, 40, 50, 60, 70, 80, 90 and 99% of a total volume of the co-solvent. […] As such, no significant fluorescence marker is shown, so it is difficult to observe apparent fluorescence visually. […] Given the above, the fluorescence intensity of the water-soluble peptide fluorescence material of formula (III-28) is increased corresponding to the increase of the volume ratio of water and has a phenomenon of aggregation-induced emission in water. In addition, the water-soluble peptide fluorescence material of formula (III-28) has the emission wavelength of about 400 nm, so the observed fluorescence has a color of violet. FIG. 13 depicts a ratio of the fluorescence intensity between Experimental Examples 1202 to 1211 and Experimental Example 1201, at the emission wavelength of 400 nm.
FIG. 15 illustrates a fluorescence intensity and an emission wavelength of the water-soluble peptide fluorescence material of formula (III-30) in co-solvents having different proportions of water and dimethyl sulfoxide. In Experimental Example 1501, 1502, 1503, 1504, 1505, 1506, 1507, 1508, 1509, 1510 and 1511, water respectively has 0, 10, 20, 30, 40, 50, 60, 70, 80, 90 and 100% of a total volume of the co-solvent. […] As such, no significant fluorescence marker is shown, so it is difficult to observe apparent fluorescence visually. […] Accordingly, the fluorescence intensity of the water-soluble peptide fluorescence material of formula (III-30) is increased corresponding to the increase of the volume ratio of water and has a phenomenon of aggregation-induced emission in water. In addition, the water-soluble peptide fluorescence material of formula (III-30) has the emission wavelength of about 400 to 425 nm, so the observed fluorescence has a color of blue violet. […]

Structure (SMILES)	color of fluorescence [1]	emission peak [1]	fluorescence intensity [1]	change of fluorescence intensity ([1]; pH decreased to 4 and 3)	change of fluorescence intensity ([1]; pH decreased to 5)	fluorescence intensity with increase of the volume ratio of water [2]	color of observed fluorescence [2]	emission wavelength [2]	fluorescence intensity ([2]; water 90%) [fluorescent units]	further results
O=C(O)C[C@H](NC(=O)[C@H](CC(=O)O)NC(=O)[C@H](Cc1ccccc1)NC(=O)CN1C(=O)c2cccc3c(N4CCCCC4)ccc(c23)C1=O)C(=O)O [III-23]	green	about 525 nm	low fluorescence intensities	slightly increased	significantly increased	increased	green	about 550 nm	–	fluorescence intensity ([2]; water 90% (Experimental Example 910), water 0 to 90% tested): highest fluorescence intensity
O=C(O)CCC(NC(=O)C(CCC(=O)O)NC(=O)C(CCC(=O)O)NC(=O)[C@H](Cc1ccccc1)NC(=O)CN1C(=O)c2cccc3c(N4CCCCC4)ccc(c23)C1=O)C(=O)O (some centres unmarked) [III-27] (X2-F[ξE][ξE][ξE]-OH)	green	about 525 nm	low fluorescence intensities	significantly increased	significantly increased	–	–	–	–	–
O=C(CNC(=O)CNC(=O)CN1C(=O)c2cccc3cccc(c23)C1=O)NCC(=O)NCC(=O)NCC(=O)NC(Cc1ccc(O)cc1)C(=O)O (centres unmarked) [III-30] ({Acetyl(1,8-naphthalimido)}-GGGGG[ξY]-OH)	–	–	–	–	–	increased	blue violet	–	200	ratio of fluorescence intensity Experimental Example 1511 to 1501 (0% water) ([2]; emission wavelength of 410 nm): 100 times; fluorescence intensity ([2]; water 0 to 80%): lower than 100 fluorescent units; fluorescence intensity ([2]; water 99%): about 700 fluorescent units
C[C@H](NC(=O)[C@H](CCC(=O)O)NC(=O)CNC(=O)[C@H](CC(=O)O)NC(=O)[C@H](Cc1ccccc1)NC(=O)CN1C(=O)c2cccc3cccc(c23)C1=O)C(=O)O [III-28] ({Acetyl(1,8-naphthalimido)}-FDGEA-OH)	purple	about 400 nm	low fluorescence intensities	significantly increased	significantly increased	increased	violet	about 400 nm	150	ratio of fluorescence intensity Experimental Example 1211 (99% water) to 1201 (0% water) ([2]; emission wavelength of 400 nm): 225 times; fluorescence intensity ([2]; water 0 to 80%): low fluorescence intensity; fluorescence intensity ([2]; water 99%): about 110 fluorescent units
O=C(O)CCC(NC(=O)[C@H](Cc1ccccc1)NC(=O)CN1C(=O)c2cccc3c(N4CCCCC4)ccc(c23)C1=O)C(=O)O (some centres unmarked) [III-21]	green	about 550 nm	low fluorescence intensities	–	significantly increased	–	–	–	–	pH value of the highest fluorescence intensity [1]: 4; change of fluorescence intensity ([1]; pH decreased from 4 to 3): decreased; change of fluorescence intensity ([1]; pH decreased from 5 to 4): further increased
O=C(O)C[C@H](NC(=O)[C@H](CC(=O)O)NC(=O)[C@H](Cc1ccccc1)NC(=O)CN1C(=O)c2cccc3c(N4CCCCC4)ccc(c23)C1=O)C(=O)O [III-22]	yellow	about 575 nm	low fluorescence intensities	–	significantly increased	–	–	–	–	ratio of fluorescence intensity Experimental Example 860 (pH=5) to Experimental Example 810 (pH=1) [1]: 90 times; pH value of the highest fluorescence intensity [1]: 5; change of fluorescence intensity ([1]; pH decreased from 4 to 3): slightly increased; change of fluorescence intensity ([1]; pH decreased from 5 to 4): decreased
O=C(CN1C(=O)c2cccc3cccc(c23)C1=O)NC(Cc1ccccc1)C(=O)O (centres unmarked) [III-1]	–	–	–	–	–	increased	blue violet	about 400 nm	100	fluorescence intensity ([2]; water 0 to 70% of co-solvent volume): low fluorescence intensity; fluorescence intensity ([2]; water 80%): 50 fluorescent units; fluorescence intensity ([2]; water 100%): about 650 fluorescent units
O=C(CN1C(=O)c2cccc3cccc(c23)C1=O)NCC(=O)NC(Cc1ccccc1)C(=O)O (centres unmarked) [III-10]	–	–	–	–	–	–	–	–	–	color of observed fluorescence ([1]; pH 4 and 3): purple; emission peak (only one remained) ([1]; pH 4 and 3): about 400 nm; color of observed fluorescence ([1]; pH 10 to 5): mixed light of green light and purple light; emission peak (first) ([1]; pH 10 to 5): about 400 nm; emission peak (other) ([1]; pH 10 to 5): about 500 nm
